Test results as given in the supplement of paper PMC10307832.

Experiments:
Assay in all cases: relative viability (nuclei count vs DMSO), 5 days (fraction); higher = more cells survive
LC-2-ad = system: LC-2-ad
Procedure, shortened: (§1)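 Values are medians from duplicate plates. Each reflects relative viability, defined as the nuclei count of treated wells over that of vehicle wells. Lung cancer cell lines in 1536-well plates were pin-tool dosed one day after seeding with one drug alone or with a fixed anchor-drug dose plus five library-drug doses (not always all listed) in √10 steps, then fixed, stained and imaged at 4× after 5 days.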

NCI-H441 = system: NCI-H441
Procedure, shortened: as §1

NCI-H596 = system: NCI-H596
Procedure, shortened: as §1

NCI-H1915 = system: NCI-H1915
Procedure, shortened: as §1

CAL-12T = system: CAL-12T
Procedure, shortened: as §1

NCI-H520 = system: NCI-H520
Procedure, shortened: as §1

NCI-H727 = system: NCI-H727
Procedure, shortened: as §1

NCI-H2087 = system: NCI-H2087
Procedure, shortened: as §1

H3255 = system: H3255
Procedure, shortened: as §1

NCI-H1651 = system: NCI-H1651
Procedure, shortened: as §1

A-427 = system: A-427
Procedure, shortened: as §1

ABC-1 = system: ABC-1
Procedure, shortened: as §1

NCI-H650 = system: NCI-H650
Procedure, shortened: as §1

BEN = system: BEN
Procedure, shortened: as §1

NCI-H1650 = system: NCI-H1650
Procedure, shortened: as §1

NCI-H1944 = system: NCI-H1944
Procedure, shortened: as §1

NCI-H661 = system: NCI-H661
Procedure, shortened: as §1

LCLC-97TM1 = system: LCLC-97TM1
Procedure, shortened: as §1

NCI-H460 = system: NCI-H460
Procedure, shortened: as §1

NCI-H2023 = system: NCI-H2023
Procedure, shortened: as §1

PC-3 [JPC-3] = system: PC-3 [JPC-3]
Procedure, shortened: as §1

201T = system: 201T
Procedure, shortened: as §1

## COc1nc(C)cnc1NS(=O)(=O)c1cccnc1-c1ccc(-c2nnco2)cc1 [Zibotentan] + N=C(N)NC(=N)NCCc1ccccc1 [Phenformin] (partner 250 µM)
LC-2-ad; first compound 0.08 µM
  relative viability: 0.564
LC-2-ad; first compound 0.8 µM
  relative viability: 0.689
LC-2-ad; first compound 2.53 µM
  relative viability: 0.619
NCI-H441; first compound 0.08 µM
  relative viability: 1.07
NCI-H441; first compound 0.253 µM
  relative viability: 0.665
NCI-H441; first compound 0.8 µM
  relative viability: 0.926
NCI-H441; first compound 2.53 µM
  relative viability: 0.895
NCI-H596; first compound 0.08 µM
  relative viability: 0.842
NCI-H596; first compound 0.253 µM
  relative viability: 0.786
NCI-H596; first compound 0.8 µM
  relative viability: 0.794
NCI-H596; first compound 2.53 µM
  relative viability: 0.805
NCI-H1915; first compound 0.08 µM
  relative viability: 0.399
NCI-H1915; first compound 0.253 µM
  relative viability: 0.358
NCI-H1915; first compound 0.8 µM
  relative viability: 0.377
NCI-H1915; first compound 2.53 µM
  relative viability: 0.289
CAL-12T; first compound 0.08 µM
  relative viability: 0.602
CAL-12T; first compound 0.253 µM
  relative viability: 0.482
CAL-12T; first compound 0.8 µM
  relative viability: 0.554
CAL-12T; first compound 2.53 µM
  relative viability: 0.609
NCI-H520; first compound 0.08 µM
  relative viability: 0.726
NCI-H520; first compound 0.253 µM
  relative viability: 0.58
NCI-H520; first compound 0.8 µM
  relative viability: 0.519
NCI-H520; first compound 2.53 µM
  relative viability: 0.581
NCI-H727; first compound 0.08 µM
  relative viability: 0.41
NCI-H727; first compound 0.253 µM
  relative viability: 0.519
NCI-H727; first compound 0.8 µM
  relative viability: 0.553
NCI-H727; first compound 2.53 µM
  relative viability: 0.627
NCI-H2087; first compound 0.08 µM
  relative viability: 0.423
NCI-H2087; first compound 0.253 µM
  relative viability: 0.428
NCI-H2087; first compound 0.8 µM
  relative viability: 0.54
NCI-H2087; first compound 2.53 µM
  relative viability: 0.486
H3255; first compound 0.08 µM
  relative viability: 0.386
H3255; first compound 0.253 µM
  relative viability: 0.326
H3255; first compound 0.8 µM
  relative viability: 0.307
H3255; first compound 2.53 µM
  relative viability: 0.354
NCI-H1651; first compound 0.08 µM
  relative viability: 0.38
NCI-H1651; first compound 0.253 µM
  relative viability: 0.264
NCI-H1651; first compound 0.8 µM
  relative viability: 0.294
NCI-H1651; first compound 2.53 µM
  relative viability: 0.339
A-427; first compound 0.08 µM
  relative viability: 0.38
A-427; first compound 0.253 µM
  relative viability: 0.39
A-427; first compound 0.8 µM
  relative viability: 0.397
A-427; first compound 2.53 µM
  relative viability: 0.348
ABC-1; first compound 0.08 µM
  relative viability: 0.236
ABC-1; first compound 0.253 µM
  relative viability: 0.235
ABC-1; first compound 0.8 µM
  relative viability: 0.252
ABC-1; first compound 2.53 µM
  relative viability: 0.227
NCI-H650; first compound 0.08 µM
  relative viability: 0.445
NCI-H650; first compound 0.253 µM
  relative viability: 0.389
NCI-H650; first compound 0.8 µM
  relative viability: 0.508
NCI-H650; first compound 2.53 µM
  relative viability: 0.461
BEN; first compound 0.08 µM
  relative viability: 0.278
BEN; first compound 0.253 µM
  relative viability: 0.261
BEN; first compound 0.8 µM
  relative viability: 0.241
BEN; first compound 2.53 µM
  relative viability: 0.264
NCI-H1650; first compound 0.08 µM
  relative viability: 0.454
NCI-H1650; first compound 0.8 µM
  relative viability: 0.516
NCI-H1650; first compound 2.53 µM
  relative viability: 0.428
NCI-H1944; first compound 0.08 µM
  relative viability: 0.226
NCI-H1944; first compound 0.253 µM
  relative viability: 0.181
NCI-H1944; first compound 0.8 µM
  relative viability: 0.188
NCI-H1944; first compound 2.53 µM
  relative viability: 0.202
NCI-H661; first compound 0.08 µM
  relative viability: 0.267
NCI-H661; first compound 0.253 µM
  relative viability: 0.252
NCI-H661; first compound 0.8 µM
  relative viability: 0.281
NCI-H661; first compound 2.53 µM
  relative viability: 0.296
LCLC-97TM1; first compound 0.08 µM
  relative viability: 0.457
LCLC-97TM1; first compound 0.253 µM
  relative viability: 0.449
LCLC-97TM1; first compound 0.8 µM
  relative viability: 0.464
LCLC-97TM1; first compound 2.53 µM
  relative viability: 0.465
NCI-H460; first compound 0.08 µM
  relative viability: 0.56
NCI-H460; first compound 0.253 µM
  relative viability: 0.147
NCI-H460; first compound 0.8 µM
  relative viability: 0.496
NCI-H460; first compound 2.53 µM
  relative viability: 0.532
NCI-H2023; first compound 0.08 µM
  relative viability: 0.407
NCI-H2023; first compound 0.253 µM
  relative viability: 0.321
NCI-H2023; first compound 0.8 µM
  relative viability: 0.416
NCI-H2023; first compound 2.53 µM
  relative viability: 0.451
PC-3 [JPC-3]; first compound 0.08 µM
  relative viability: 0.459
PC-3 [JPC-3]; first compound 0.253 µM
  relative viability: 0.466
PC-3 [JPC-3]; first compound 0.8 µM
  relative viability: 0.474
PC-3 [JPC-3]; first compound 2.53 µM
  relative viability: 0.499
201T; first compound 0.08 µM
  relative viability: 0.477
201T; first compound 0.253 µM
  relative viability: 0.451
201T; first compound 0.8 µM
  relative viability: 0.441
201T; first compound 2.53 µM
  relative viability: 0.442
